Data set [1] can be described thus: Pharmacokinetic parameters in Swiss mice after oral administration. The following applies: mouse, in vivo, 1 mg/kg p.o.; for Cmax: n = 4; for AUC(0-t): n = 4, read-out: AUC(0-48 h). An excerpt: Moreover, preferred compounds of the present invention also display an outstanding bioavailability.
Data set [2] relates to circulating lymphocytes. In words: In vivo lymphopenia ED50 in mice. The settings on record: Mus musculus, Lymphocyte, read-out: ED50 (EDG1) (In mice). Here is the method: (§1) b) Assessment of Lymphopenia
(§2) Lymphopenia was assessed in vivo. Experiments were done in non-fasted/fasted Swiss mice and/or: Sprague Dawley rats, Wistar rats, Beagle dogs, Cynomolgus monkeys. Compounds were administered orally in suspension in carboxymethyl-cellulose 0.5-1% in water (W/V). Blood was taken on anesthetized/non anaesthetized animal (4% isoflurane) and samples collected in EDTA-containing vacuum tubes from 1 h 30 to 72 hours post administration for lymphopenia measurement.
(§3) After 10 minutes stirring, cells were counted using ABC Vet haemocytometer (Scil vet animal Care) for rodent and dog or ADVIA 120 hematology analyzer for monkeys. Pharmacodynamic effect was measured by the decrease in circulating lymphocytes by test item treatment in comparison with haematological parameters of control animals or versus predosing in the same animals.

The target of the next data set is hERG channel (Homo sapiens, UniProt Q12809). The experiment in a line: biochemical. Here is the method: c) Evaluation of Activity for hERG Blockade Liability
Sequence of hERG channel (Q12809 whole entry): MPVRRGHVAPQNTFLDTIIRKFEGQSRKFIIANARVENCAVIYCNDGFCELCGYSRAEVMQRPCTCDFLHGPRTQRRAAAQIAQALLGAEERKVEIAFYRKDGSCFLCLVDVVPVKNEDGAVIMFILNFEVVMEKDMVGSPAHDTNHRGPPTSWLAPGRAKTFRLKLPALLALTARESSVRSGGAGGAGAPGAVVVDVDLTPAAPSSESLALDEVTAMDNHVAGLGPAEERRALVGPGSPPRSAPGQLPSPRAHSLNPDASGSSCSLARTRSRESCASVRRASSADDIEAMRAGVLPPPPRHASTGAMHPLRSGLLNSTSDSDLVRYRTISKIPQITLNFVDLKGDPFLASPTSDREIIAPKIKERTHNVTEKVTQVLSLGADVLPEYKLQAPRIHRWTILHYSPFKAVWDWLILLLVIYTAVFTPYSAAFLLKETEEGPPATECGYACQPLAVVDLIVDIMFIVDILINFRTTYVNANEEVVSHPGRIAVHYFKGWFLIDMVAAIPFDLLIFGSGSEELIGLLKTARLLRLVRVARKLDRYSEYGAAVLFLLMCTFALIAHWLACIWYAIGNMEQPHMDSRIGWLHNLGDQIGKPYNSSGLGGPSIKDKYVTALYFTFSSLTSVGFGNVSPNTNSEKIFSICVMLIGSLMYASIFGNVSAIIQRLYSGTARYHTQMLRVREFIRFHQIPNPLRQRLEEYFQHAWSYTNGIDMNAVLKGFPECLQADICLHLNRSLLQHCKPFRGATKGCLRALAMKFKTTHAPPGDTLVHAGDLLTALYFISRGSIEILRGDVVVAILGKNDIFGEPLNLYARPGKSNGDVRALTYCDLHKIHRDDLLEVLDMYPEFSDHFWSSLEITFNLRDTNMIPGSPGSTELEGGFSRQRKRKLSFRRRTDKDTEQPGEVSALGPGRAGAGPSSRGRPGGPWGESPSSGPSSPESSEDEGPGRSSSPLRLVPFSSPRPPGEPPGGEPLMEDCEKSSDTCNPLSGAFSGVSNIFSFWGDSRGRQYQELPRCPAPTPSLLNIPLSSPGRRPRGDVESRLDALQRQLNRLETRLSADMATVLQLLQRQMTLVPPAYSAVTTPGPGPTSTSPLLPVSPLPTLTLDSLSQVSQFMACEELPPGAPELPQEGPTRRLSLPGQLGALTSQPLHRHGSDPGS
HEK293 cells were stably transfected with the human hERG receptor gene. Binding assays were performed using 5 μg of cell membranes expressing hERG channel resuspended in 10 mM Hepes pH 7.4, 135 mM NaCl, 60 mM DL-Aspartic Acid Potassium, 1 mM EGTA, 0.8 mM MgCl2, 10 mM (D+) Glucose, 0.01% BSA, in a final volume of 200 μL. For [^3H] […] Non specific binding was estimated in the presence of 1 μM Astemizole. The reaction was terminated by filtration through Durapore BV 1.2 μm filters pre-soaked in 3% polyethyleneimine 10 minutes at room temperature. Filters were rinsed 2 times with 250 μL of ice cold 25 mM Tris-HCl pH 7.4 buffer. The filter-bound radioactivity was measured in a liquid scintillation counter with 50 μL of scintillation fluid. [^3H]
The hERG binding investigated by use of [^3H]

Another data set has as its target EDG3 (Homo sapiens, UniProt Q99500). The experiment in a line: 35S-GTPγS binding assay, EDG3 (S1P3). The class given is biochemical. The following applies: Table 1a. Here is the method: (§4) a) 35S-GTPγS Binding Assay GTP-γ-^35S binding was performed using […]15 μg protein of cell membranes suspended in 50 mM tris-HCl pH 7.5 containing 10 mM MgCl2, 100 mM NaCl and 10 μM GDP. The radioligand was 0.025 nM [^35S] GTP-γ-S and non specific binding determined in the presence of 10 μM non-radioactive GTP-γ-S. […] The maximal stimulation elicited by S1P was taken as a reference to define full or partial agonism and calculate the intrinsic activity (i.a.) of compounds.
A general note: GTPγS is a poorly hydrolysed GTP analogue; its binding reports G protein activation.

For the next data set, the target named is EDG5 (Homo sapiens, UniProt O95136). In words: 35S-GTPγS binding assay, EDG5 (S1P2). The class given is biochemical. The following applies: Table 1a. Here is the method:
as §4

A further data set concerns the target EDG-1 (Homo sapiens, UniProt P21453). The experiment in a line: 35S-GTPγS binding assay, EDG1 (S1P1). The data set is classed as biochemical. Further details: expressed in transfected cells. The settings on record: for EC50: Table 1a, read-out: EC50 (nM) EDG1; for pEC50: read-out: EDG1 EC50. Here is the method: as §4
The subject of data set [3] is circulating lymphocytes. The experiment in a line: Assessment of lymphopenia in rats. The data set is classed as in vivo. The settings on record: for Lymphopenia in rats % lymphopenia at given dose at 24 hrs: 0.3 mpk. Here is the method:
as §1, §2, §3

pEC50, pKi: −log10 of the molar value. Where a name gives a salt, the structure may show the parent alone. Read-outs that look alike come from different tables or passages of the source.

Consider 18 compounds from patent publication US9266867B2, “Piperidinyl monocarboxylic acids as S1P1 receptor agonists” (BIOPROJET, priority 2011, dated 2016).

The Cmax is the highest concentration seen after dosing. The ED50 is the dose at which the effect has come halfway, by size or by number of responders. The pKi is the Ki on a negative log10 scale, so that one unit is a factor of ten. A higher pKi goes with a low Ki. Usually EC50 stands for the midpoint of the concentration-response curve. Usually pEC50 stands for −log10 of the EC50, conventionally taken in molar units.

Sequence of EDG5 (O95136 whole entry, species assumed): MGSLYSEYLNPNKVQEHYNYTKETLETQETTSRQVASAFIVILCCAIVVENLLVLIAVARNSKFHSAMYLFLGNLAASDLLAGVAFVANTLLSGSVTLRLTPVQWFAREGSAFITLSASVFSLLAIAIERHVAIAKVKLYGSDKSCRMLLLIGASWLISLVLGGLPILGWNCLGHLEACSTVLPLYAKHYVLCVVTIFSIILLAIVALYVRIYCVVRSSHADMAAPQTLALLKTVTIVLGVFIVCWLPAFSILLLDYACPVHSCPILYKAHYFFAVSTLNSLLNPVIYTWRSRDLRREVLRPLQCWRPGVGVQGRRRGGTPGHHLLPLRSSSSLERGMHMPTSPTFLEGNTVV
Sequence of EDG-1 (P21453 whole entry): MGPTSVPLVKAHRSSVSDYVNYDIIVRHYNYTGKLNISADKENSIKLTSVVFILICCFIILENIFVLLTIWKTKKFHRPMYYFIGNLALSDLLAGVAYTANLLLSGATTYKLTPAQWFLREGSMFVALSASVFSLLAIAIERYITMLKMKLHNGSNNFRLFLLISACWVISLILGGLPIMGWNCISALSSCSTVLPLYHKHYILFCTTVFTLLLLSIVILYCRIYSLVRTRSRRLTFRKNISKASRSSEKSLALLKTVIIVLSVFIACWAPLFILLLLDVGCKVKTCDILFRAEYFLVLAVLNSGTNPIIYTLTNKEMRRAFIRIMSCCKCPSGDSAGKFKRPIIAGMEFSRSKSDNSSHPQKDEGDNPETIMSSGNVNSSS
Sequence of EDG3 (Q99500 whole entry, species assumed): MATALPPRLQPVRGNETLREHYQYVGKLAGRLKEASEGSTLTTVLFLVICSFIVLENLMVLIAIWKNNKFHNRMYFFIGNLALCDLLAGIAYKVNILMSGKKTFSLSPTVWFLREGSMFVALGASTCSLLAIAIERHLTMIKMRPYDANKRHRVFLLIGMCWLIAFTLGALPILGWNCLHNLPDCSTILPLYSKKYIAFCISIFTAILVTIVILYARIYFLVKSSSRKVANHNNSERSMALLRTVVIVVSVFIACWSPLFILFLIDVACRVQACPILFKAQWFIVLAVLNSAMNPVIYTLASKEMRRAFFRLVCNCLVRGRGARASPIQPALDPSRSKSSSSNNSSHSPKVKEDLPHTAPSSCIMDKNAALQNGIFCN

With `CC(C)Cc1ccc(-c2nc(-c3ccc(CN4CC(C(=O)O)C4)cc3)no2)cc1` [Comparative compound 5, reference compound], in data set [1], the Cmax was 495 ng/mL and the AUC(0-t) was 4530 ng·h/mL.

For `Cl.O=C(O)C1(C(=O)O)CCN(Cc2ccc(-c3noc(-c4ccc(-c5ccccc5)c(F)c4)n3)cc2)CC1` [Comparative example 6, reference compound], in the data set with circulating lymphocytes [2], the ED50 was determined as 0.4 mg/kg.

With `CC(C)Cc1ccc(-c2nc(-c3ccc(CN4CCC(C(=O)O)(C(=O)O)CC4)cc3)no2)cc1` [Comparative example 7, reference compound], the ED50 in the data set on circulating lymphocytes [2] is 1.8 mg/kg.

Consider `Cl.O=C(O)C1(C(=O)O)CCN(Cc2ccc(-c3noc(-c4ccc(C5CCCCC5)cc4)n3)cc2)CC1` [Comparative example 8, reference compound], for which the ED50 with circulating lymphocytes [2] was 10 mg/kg.

As for `CC1(C(=O)O)CCN(Cc2ccc(-c3noc(-c4ccc(C5CCCCC5)c(Cl)c4)n3)cc2)CC1` [Example 1, 1-{4-[5-(3-chloro-4-cyclohexylphenyl)-[1,2,4]-oxadiazol-3-yl]benzyl}-4-methylpiperidine-4-carboxylic acid], the pKi at hERG channel is under 5.00. Besides, the EC50 at EDG3 is over 1000 nM; at EDG5 it was over 1000 nM; on EDG-1, under 1 nM. Also, on EDG-1 (Table 1b), the pEC50 is over 9.00.

In the case of `CC(C)Cc1ccc(-c2nc(-c3ccc(CN4CCC(C)(C(=O)O)CC4)cc3)no2)cc1Cl` [Example 2, 1-{4-[5-(3-chloro-4-isobutylphenyl)-[1,2,4]-oxadiazol-3-yl]benzyl}-4-methylpiperidine-4-carboxylic acid, tert-butylamine salt], the pKi at hERG channel is under 5.00. In the data set on circulating lymphocytes [3] (Sprague-Dawley female), the “Lymphopenia in rats % lymphopenia at given dose at 24 hrs” value was 76% (0.3 mpk). In addition, the EC50 on EDG-1 was under 1 nM. The pEC50 on EDG-1 (Table 1b) was over 9.00.

Consider `CC(C)Cc1ccc(-c2nc(-c3ccc(CN4CCC(C)(C(=O)O)CC4)cc3)no2)cc1Cl` [Example 3, 1-{4-[5-(3-chloro-4-isobutylphenyl)-[1,2,4]-oxadiazol-3-yl]benzyl}-4-methylpiperidine-4-carboxylic acid], for which the ED50 in the data set on circulating lymphocytes [2] was 0.2 mg/kg. Moreover, in data set [1], the Cmax was 798 ng/mL and the AUC(0-t) was determined as 13100 ng·h/mL.

In the case of `CC1(C(=O)O)CCN(Cc2ccc(-c3noc(-c4ccc(C5CCCC5)c(Cl)c4)n3)cc2)CC1` [Example 7, 1-{4-[5-(3-chloro-4-cyclopentylphenyl)-[1,2,4]-oxadiazol-3-yl]benzyl}-4-methylpiperidine-4-carboxylic acid], the pKi at hERG channel is under 5.00. Moreover, the EC50 on EDG3 is 581 nM; on EDG5, over 1000 nM; on EDG-1, under 1 nM. The pEC50 at EDG-1 (Table 1b) was over 9.00.

In the case of `CC1(C(=O)O)CCN(Cc2ccc(-c3noc(-c4ccc(-c5ccccc5)c(Cl)c4)n3)cc2)CC1` [Example 8, 1-{4-[5-(2-Chlorobiphenyl-4-yl)-[1,2,4]-oxadiazol-3-yl]benzyl}-4-methylpiperidine-4-carboxylic acid], in the data set on circulating lymphocytes [2], the ED50 was found to be 0.1 mg/kg. Besides, the pEC50 at EDG-1 (Table 1b) was over 9.00.

As for `COCC1(C(=O)O)CCN(Cc2ccc(-c3noc(-c4ccc(C5CCCC5)c(Cl)c4)n3)cc2)CC1` [Example 9, 1-{4-[5-(3-chloro-4-cyclopentylphenyl)-[1,2,4]-oxadiazol-3-yl]benzyl}-4-methoxymethylpiperidine-4-carboxylic acid tert-butyl amine salt], the pKi at hERG channel is under 5.00. For the same compound, the EC50 was over 1000 nM on EDG3, over 1000 nM on EDG5 and under 1 nM on EDG-1. Further, the pEC50 on EDG-1 (Table 1b) is over 9.00.

For the compound `COCC1(C(=O)O)CCN(Cc2ccc(-c3noc(-c4ccc(C5CCCCC5)c(Cl)c4)n3)cc2)CC1` [Example 10, 1-{4-[5-(3-chloro-4-cyclohexylphenyl)-[1,2,4]-oxadiazol-3-yl]benzyl}-4-methoxymethylpiperidine-4-carboxylic acid tert-butyl amine salt], the pKi on hERG channel is under 5.00. For the same compound, the 50% effective dose (ED50) in the data set on circulating lymphocytes [2] worked out at 0.2 mg/kg. In addition, the EC50 at EDG3 was 610 nM; at EDG-1 it was under 1 nM. Besides, on EDG-1 (Table 1b), the pEC50 is over 9.00.

`CCC1(C(=O)O)CCN(Cc2ccc(-c3noc(-c4ccc(CC(C)C)c(Cl)c4)n3)cc2)CC1` [Example 11, 1-{4-[5-(3-chloro-4-isobutylphenyl)-[1,2,4]-oxadiazol-3-yl]benzyl}-4-ethylpiperidine-4-carboxylic acid tert-butyl amine salt]: on hERG channel, the pKi is under 5.00. Further, the “Lymphopenia in rats % lymphopenia at given dose at 24 hrs” value in the data set on circulating lymphocytes [3] (Wistar female) is reported as 75% (0.3 mpk). Also, the EC50 on EDG3 was 198 nM; at EDG5, over 1000 nM; on EDG-1, under 1 nM. Also, the pEC50 on EDG-1 (Table 1b) was over 9.00.

For `C=CCC1(C(=O)O)CCN(Cc2ccc(-c3noc(-c4ccc(CC(C)C)c(Cl)c4)n3)cc2)CC1` [Example 12, 4-allyl-1-{4-[5-(3-chloro-4-isobutylphenyl)-[1,2,4]-oxadiazol-3-yl]benzyl}piperidine-4-carboxylic acid tert-butyl amine salt], the pKi at hERG channel was under 5.00. Further, the “Lymphopenia in rats % lymphopenia at given dose at 24 hrs” value in the data set on circulating lymphocytes [3] (Wistar female) is reported as 66% (0.3 mpk). The EC50 is over 1000 nM at EDG3, over 1000 nM on EDG5 and under 1 nM at EDG-1. For the same compound, at EDG-1 (Table 1b), the pEC50 was over 9.00.

With `CCCC1(C(=O)O)CCN(Cc2ccc(-c3noc(-c4ccc(CC(C)C)c(Cl)c4)n3)cc2)CC1` [Example 13, 1-{4-[5-(3-chloro-4-isobutylphenyl)-[1,2,4]-oxadiazol-3-yl]benzyl}-4-propylpiperidine-4-carboxylic acid tert-butyl amine salt], the pKi on hERG channel was under 5.00. Further, the 50% effective concentration (EC50) on EDG3 is over 1000 nM; on EDG5 it was over 1000 nM; at EDG-1, under 1 nM. In addition, at EDG-1 (Table 1b), the pEC50 was over 9.00.

Turning to `CC(C)Cc1ccc(-c2nc(-c3ccc(CN4CCC(CO)(C(=O)O)CC4)cc3)no2)cc1Cl` [Example 15, 1-{4-[5-(3-chloro-4-isobutylphenyl)-[1,2,4]-oxadiazol-3-yl]benzyl}-4-hydroxymethylpiperidine-4-carboxylic acid tert-butyl amine salt], the pKi on hERG channel was under 5.00. In addition, the “Lymphopenia in rats % lymphopenia at given dose at 24 hrs” value in the data set with circulating lymphocytes [3] (Sprague-Dawley female) was 69% (0.3 mpk). In addition, the EC50 was over 1000 nM on EDG3, over 1000 nM at EDG5 and under 1 nM at EDG-1. In addition, the pEC50 at EDG-1 (Table 1b) is over 9.00.

Consider `CC(C)Cc1ccc(-c2nc(-c3ccc(CN4CCC(C(=O)O)CC4)cc3)no2)cc1.Cl` [compound 2], for which, in the data set with circulating lymphocytes [3], the “Lymphopenia in rats % lymphopenia at 1 mpk/p.o dose 8 Hrs” value was −25% and the “Lymphopenia in rats % lymphopenia at 1 mpk/p.o dose 24 Hrs” value is −101%. On EDG-1 (comparative examples table), the pEC50 is 7.24.

Turning to `CC(C)Cc1ccc(-c2nc(-c3ccc(CN4CCC[C@@H](C(=O)O)C4)cc3)no2)cc1` [compound 3], in the data set on circulating lymphocytes [3], the “Lymphopenia in rats % lymphopenia at 1 mpk/p.o dose 8 Hrs” value is listed as −24% and the “Lymphopenia in rats % lymphopenia at 1 mpk/p.o dose 24 Hrs” value is given as −58%. In addition, the pEC50 on EDG-1 (comparative examples table) is 7.25.

In the case of `Cl.O=C(O)C1CCN(Cc2ccc(-c3noc(-c4ccc(C5CCCCC5)cc4)n3)cc2)CC1` [compound 4], in the data set on circulating lymphocytes [3], the “Lymphopenia in rats % lymphopenia at 1 mpk/p.o dose 8 Hrs” value came out at 2% and the “Lymphopenia in rats % lymphopenia at 1 mpk/p.o dose 24 Hrs” value is recorded as −57%. Further, on EDG-1 (comparative examples table), the pEC50 is 7.86.
